PMC3226715 (Chemical research in toxicology, 2011)

Legend:
GRd = conditions: rat renal proximal tubule cells treated with DCVC; cited from earlier work
MDH = conditions: rat liver mitochondria in the presence of DCVC; cited from earlier work
[1] = Half-life in the presence of GSH; type: physicochemical; conditions: 0.31 mM compound, 1.02 mM GSH (3:10 molar ratio), phosphate buffer pH 7.4, 37°C
[2] = biological target: glutathione reductase (GRd) from baker's yeast (Saccharomyces cerevisiae, UniProt P41921); assay: Covalent modification of the model enzyme GRd, anti-biotin immunoblot; type: binding; conditions: 10 µM NB-DCVCS, 3 h, 37°C, 0.5 mg/mL protein
[3] = biological target: T1, porcine heart mitochondrial malate dehydrogenase (MDH) (Sus scrofa, UniProt P00346); assay: Covalent modification of the model enzyme MDH, anti-biotin immunoblot; type: binding; conditions: 10 µM NB-DCVCS, 3 h, 37°C, 0.5 mg/mL protein
T1 sequence (P00346 25-338): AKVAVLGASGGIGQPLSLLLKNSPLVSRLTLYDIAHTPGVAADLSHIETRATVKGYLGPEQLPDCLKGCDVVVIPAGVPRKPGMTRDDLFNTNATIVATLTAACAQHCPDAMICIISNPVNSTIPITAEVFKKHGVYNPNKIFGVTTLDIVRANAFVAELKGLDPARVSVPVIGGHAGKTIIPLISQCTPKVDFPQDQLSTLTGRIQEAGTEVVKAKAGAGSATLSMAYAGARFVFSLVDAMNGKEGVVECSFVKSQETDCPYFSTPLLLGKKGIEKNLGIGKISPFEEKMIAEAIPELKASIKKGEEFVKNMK

[4] = tested on: rat kidney cytosol proteins; assay: Binding of NB-DCVCS to kidney cytosolic proteins, anti-biotin immunoblot; design: species or system male Sprague Dawley rat; conditions: 6 µg/µL cytosol, 3 h, 37°C
[5] = Stability in isolated rat plasma; type: in vitro ADME, male Sprague-Dawley rat; conditions: 50 µM, 37°C
[6] = Stability in isolated rat whole blood; type: in vitro ADME, male Sprague-Dawley rat; conditions: 50 µM, 37°C
[7] = Stability in phosphate buffer pH 7.4; type: physicochemical
[8] = Stability under acidic conditions; type: physicochemical; conditions: 0.2 M HCl/KCl buffer pH 2, several hours at 37°C (data not shown)

glutathione reductase (GRd) from baker's yeast, sequence (P41921 whole entry): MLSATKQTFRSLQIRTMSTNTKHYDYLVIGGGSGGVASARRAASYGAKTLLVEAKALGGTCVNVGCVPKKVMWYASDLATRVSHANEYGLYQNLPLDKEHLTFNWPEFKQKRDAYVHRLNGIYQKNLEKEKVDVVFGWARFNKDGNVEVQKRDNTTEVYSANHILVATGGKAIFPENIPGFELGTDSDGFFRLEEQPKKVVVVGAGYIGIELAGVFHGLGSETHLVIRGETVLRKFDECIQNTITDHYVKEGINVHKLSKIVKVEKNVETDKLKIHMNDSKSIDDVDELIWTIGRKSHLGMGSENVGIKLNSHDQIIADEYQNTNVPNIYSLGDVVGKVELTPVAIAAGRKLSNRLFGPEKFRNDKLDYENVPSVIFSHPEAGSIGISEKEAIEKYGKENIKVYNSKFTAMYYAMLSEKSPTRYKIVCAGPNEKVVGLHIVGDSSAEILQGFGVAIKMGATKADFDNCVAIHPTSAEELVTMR

N[C@@H](CSC(Cl)=CCl)C(=O)O [DCVC]
GRd activity (GRd): inhibited | MDH activity (MDH): inhibited

O=C(CCCC[C@@H]1SC[C@@H]2NC(=O)N[C@@H]21)N[C@@H](C[S+]([O-])C(Cl)=CCl)C(=O)O (stereo partly shown) [NB-DCVCS]
half-life in the presence of GSH [1]: 39.6 min | modification of glutathione reductase (immunoblot) [2]: extensively modified | modification of malate dehydrogenase (immunoblot) [3]: extensively modified | immunoblot signal of modified kidney cytosol proteins ([4]; 312.5 nM to 5 µM NB-DCVCS): concentration-dependent increases in signal and the number of bands | NB-DCVCS concentration at which modified proteins were detected [4]: ≥ 625 nM | DCVCS formation from NB-DCVCS (amide bond cleavage) in plasma [5]: No DCVCS formation was observed | half-life in plasma [5]: 40 min | detection in plasma after 150 min ([5]; after 150 min): not detectable | DCVCS formation from NB-DCVCS (amide bond cleavage) in whole blood [6]: No DCVCS formation was observed | half-life in whole blood [6]: 68.5 min | detection in whole blood after 150 min ([6]; after 150 min): not detectable | time stable in phosphate buffer ([7]; phosphate buffer, 37°C): greater than 120 min | stability in phosphate buffer pH 7.4 ([7]; several hours at 37°C (data not shown)): stable | stability under acidic conditions [8]: stable
